Source: BindingDB's records for doi:10.1021/acschembio.6b00596 (Jagiellonian University, 2016)

How the values were obtained:
[1] = biological target: T1, E3 ubiquitin-protein ligase Mdm2 [1-118] (Homo sapiens, UniProt Q00987); assay: NMR Measurements; details: pH 7.4; 15 °C
T1 construct: 1-118

[2] = biological target: T2, E3 ubiquitin-protein ligase Mdm2 [1-118,T47W] (Homo sapiens, UniProt Q00987, T47W); assay: Microscale Thermophoresis (MT) Binding Assay; details: pH 7.4; 25 °C
T2 construct: 1-118
Procedure: Experiments were performed in 50 mM phosphate buffer at pH 7.4 containing 150 mM NaCl, 5 mM DTT, and 5% DMSO.

`O=C1OC(O)(Cc2ccc(F)cc2)C(c2c[nH]c3cc(Cl)ccc23)=C1Cc1ccc(Cl)cc1` (centres undefined) [3-(4-Chlorobenzyl)-4-(6-chloro-1H-indol-3-yl)-5-(4-fluorobenzyl)-5-hydroxy-1,5-dihydro-2H-furan-2-one (2c)] gave a Kd [1] of 18 µM and a Kd [2] of 28.7 µM.
For `O=C1OC(O)(Cc2ccc(Cl)cc2)C(Cc2ccc(Cl)cc2)=C1c1c[nH]c2cc(Cl)ccc12` (centres undefined) [4,5-di(4-chlorobenzyl)-3-(6-chloro-1H-indol-3-yl)-5-hydroxy-1,5-dihydro-2H-furan-2-one (2b)], the Kd [1] was 86 µM and the Kd [2] was 1.5 µM.
Work on `O=C1OC(O)(Cc2ccc(F)cc2)C(Cc2ccc(Cl)cc2)=C1c1c[nH]c2cc(Cl)ccc12` (centres undefined) [4-(4-chlorobenzyl)-3-(6-chloro-1H-indol-3-yl)-5-(4-fluorobenzyl)-5-hydroxy-1,5-dihydro-2H-furan-2-one (2d)] yielded a Kd [2] of 26 µM.
For `O=C1OC(O)(Cc2ccc(Cl)cc2)C(c2c[nH]c3cc(Cl)ccc23)=C1c1ccc(Cl)cc1` (centres undefined) [5-(4-Chlorobenzyl)-4-(6-chloro-1H-indol-3-yl)-3-(4-chlorophenyl)-5-hydroxy-1,5-dihydro-2H-furan-2-one (2e)], the Kd [1] was 60 µM and the Kd [2] was 1.3 µM.
For `O=C1OC(O)(Cc2ccc(Cl)cc2)C(c2ccc(Cl)cc2)=C1c1c[nH]c2cc(Cl)ccc12` (centres undefined) [5-(4-chlorobenzyl)-3-(6-chloro-1H-indol-3-yl)-4-(4-chlorophenyl)-5-hydroxy-1,5-dihydro-2H-furan-2-one (2f)], the Kd [1] was 68 µM and the Kd [2] was 7 µM.
In the case of `O=C1C(c2c[nH]c3cc(Cl)ccc23)=C(c2ccc(Cl)cc2)C(O)N1Cc1ccc(Cl)cc1` (centres undefined) [N-(4-Chlorobenzyl)-3-(6-chloro-1H-indol-3-yl)-4-(4-chlorophenyl)-5-hydroxy-1,5-dihydro-2H-pyrrol-2-on (1h)], the Kd [1] is reported as 40 µM and the Kd [2] is reported as 2.1 µM.
`O=C1C(c2ccc(Cl)cc2)=C(c2c[nH]c3cc(Cl)ccc23)C(O)N1Cc1ccc(Cl)cc1` (centres undefined) [N-(4-chlorobenzyl)-4-(6-chloro-1H-indol-3-yl)-3-(4-chlorophenyl)-5-hydroxy-1,5-dihydro-2H-pyrrol-2-on (1g)] was tested, and the Kd [1] was 164 µM and the Kd [2] was 24.4 µM.
`CN1C(=O)C(Cc2ccc(Cl)cc2)=C(c2c[nH]c3cc(Cl)ccc23)C1(O)Cc1ccc(Cl)cc1` (centres undefined) [N-Methyl-3,5-di(4-chlorobenzyl)-4-(6-chloro-1H-indol-3-yl)-5-hydroxy-1,5-dihydro-2H-pyrrol-2-one (1a)] was tested, and the Kd [1] was < 1 µM and the Kd [2] was 0.5 µM.
`CN1C(=O)C(c2ccc(Cl)cc2)=C(c2cn(C)c3cc(Cl)ccc23)C1(O)Cc1ccc(Cl)cc1` (centres undefined) [N-Methyl-5-(4-chlorobenzyl)-4-(6-chloro-1-methyl-1H-indol-3-yl)-3-(4-chlorophenyl)-5-hydroxy-1,5-dihydro-2H-pyrrol-2-one (1e)] was tested, and the Kd [1] was 365 µM and the Kd [2] was 40.5 µM.
For `CN1C(=O)C(c2ccc(Cl)cc2)=C(c2c[nH]c3cc(Cl)ccc23)C1(O)Cc1ccc(Cl)cc1` (centres undefined) [N-Methyl-5-(4-chlorobenzyl)-4-(6-chloro-1H-indol-3-yl)-3-(4-chlorophenyl)-5-hydroxy-1,5-dihydro-2H-pyrrol-2-one (1c)], the Kd [1] was 51 µM and the Kd [2] was 18.7 µM.
In the case of `CN1C(=O)C(c2c[nH]c3cc(Cl)ccc23)=C(Cc2ccc(Cl)cc2)C1(O)Cc1ccc(Cl)cc1` (centres undefined) [N-methyl-4,5-di(4-chlorobenzyl)-3-(6-chloro-1H-indol-3-yl)-5-hydroxy-1,5-dihydro-2H-pyrrol-2-one (1b)], the Kd [1] is reported as 56 µM.
Compound `CN1C(=O)C(c2cn(C)c3cc(Cl)ccc23)=C(c2ccc(Cl)cc2)C1(O)Cc1ccc(Cl)cc1` (centres undefined) [N-methyl-5-(4-chlorobenzyl)-3-(6-chloro-1-methyl-1H-indol-3-yl)-4-(4-chlorophenyl)-5-hydroxy-1,5-dihydro-2H-pyrrol-2-one (1f)] has a Kd [1] of 246 µM and a Kd [2] of 30.4 µM.
Compound `CN1C(=O)C(c2c[nH]c3cc(Cl)ccc23)=C(c2ccc(Cl)cc2)C1(O)Cc1ccc(Cl)cc1` (centres undefined) [N-methyl-5-(4-chlorobenzyl)-3-(6-chloro-1H-indol-3-yl)-4-(4-chlorophenyl)-5-hydroxy-1,5-dihydro-2H-pyrrol-2-one (1d)] has a Kd [1] of 192 µM and a Kd [2] of 27.7 µM.
